Laboratory results as given in US20220089575A1, “FARNESOID X RECEPTOR AGONISTS AND USES THEREOF” (Metacrine, Inc., priority 2017, published 2022).

Molecular target: T1, hFXR (Homo sapiens, UniProt Q96RI1)
T1 construct: expressed in transfected cells; host or cells: CV-1 cells
T1 sequence (Q96RI1 1-486): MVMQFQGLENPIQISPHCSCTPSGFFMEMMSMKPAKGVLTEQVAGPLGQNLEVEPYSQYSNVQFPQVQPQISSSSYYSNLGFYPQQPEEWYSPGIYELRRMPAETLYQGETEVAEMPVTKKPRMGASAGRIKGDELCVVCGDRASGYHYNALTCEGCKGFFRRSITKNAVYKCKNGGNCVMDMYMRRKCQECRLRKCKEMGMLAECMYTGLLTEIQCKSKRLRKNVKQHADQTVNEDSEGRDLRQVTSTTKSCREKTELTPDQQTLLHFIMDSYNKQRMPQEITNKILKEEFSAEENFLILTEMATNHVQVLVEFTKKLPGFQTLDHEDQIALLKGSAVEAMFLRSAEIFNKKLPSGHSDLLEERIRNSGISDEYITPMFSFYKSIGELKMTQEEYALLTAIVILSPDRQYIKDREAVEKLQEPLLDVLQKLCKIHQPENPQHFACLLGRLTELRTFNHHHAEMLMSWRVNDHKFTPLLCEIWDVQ
T1 sequence (P19793 1-462 partner): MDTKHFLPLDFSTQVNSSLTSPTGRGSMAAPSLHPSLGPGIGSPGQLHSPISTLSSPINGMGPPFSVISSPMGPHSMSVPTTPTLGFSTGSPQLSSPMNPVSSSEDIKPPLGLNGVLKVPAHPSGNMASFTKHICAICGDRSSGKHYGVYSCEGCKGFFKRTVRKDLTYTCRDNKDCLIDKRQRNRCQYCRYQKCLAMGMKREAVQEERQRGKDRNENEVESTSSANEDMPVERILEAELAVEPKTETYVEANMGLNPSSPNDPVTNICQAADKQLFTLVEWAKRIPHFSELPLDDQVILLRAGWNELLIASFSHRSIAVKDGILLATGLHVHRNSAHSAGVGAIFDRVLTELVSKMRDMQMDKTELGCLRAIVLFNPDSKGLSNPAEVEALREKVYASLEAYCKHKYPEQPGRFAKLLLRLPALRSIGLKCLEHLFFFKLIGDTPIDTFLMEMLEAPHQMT
Experiment: In Vitro FXR Assay (TK): TK-ECRE-luc reporter in transfected CV-1 cells
Format: cell-based
Settings: 18 hrs, luminescence, maximum efficacy of <25% of the Fexarmine control classified as '+'
In short: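 Luciferase read-out after 18 h compound exposure of CV-1 cells carrying transfected hFXR plus hRXR expression plasmids, TK-ECRE-luc reporter and pCMX-YFP. Cells cultured in charcoal-stripped FBS before transfection; compounds serially diluted in DMSO.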

| Structure (SMILES) | EC50 [nM] |
| --- | --- |
| COc1ccc([C@H]2CC[C@H](CN(c3cccc(-c4coc(C(C)C)n4)c3)C(=O)[C@H]3CC[C@H](OC(=O)NCCO)CC3)CC2)nc1C [Compound 6.48, trans-4-((3-(2-Isopropyloxazol-4-yl)phenyl)((trans-4-(5-methoxy-6-methylpyridin-2-yl)cyclohexyl)methyl)carbamoyl)cyclohexyl (2-hydroxyethyl)carbamate] | ≤ 250 |
| COc1ccc([C@H]2CC[C@H](CN(c3cccc(-c4coc(C(C)C)n4)c3)C(=O)[C@H]3CC[C@H](OC(=O)NCCCO)CC3)CC2)nc1C [Compound 6.49, trans-4-((3-(2-Isopropyloxazol-4-yl)phenyl)((trans-4-(5-methoxy-6-methylpyridin-2-yl)cyclohexyl)methyl)carbamoyl)cyclohexyl (3-hydroxypropyl)carbamate] | ≤ 250 |
| COc1ccc([C@H]2CC[C@H](CN(c3cccc(-c4coc(C5CC5)n4)c3)C(=O)[C@H]3CC[C@H](OC(=O)NCCO)CC3)CC2)nc1C [Compound 6.50, trans-4-((3-(2-Cyclopropyloxazol-4-yl)phenyl)((trans-4-(5-methoxy-6-methylpyridin-2-yl)cyclohexyl)methyl)carbamoyl)cyclohexyl (2-hydroxyethyl)carbamate] | ≤ 250 |
| COc1ccc([C@H]2CC[C@H](CN(c3cccc(-c4coc(C5CC5)n4)c3)C(=O)[C@H]3CC[C@H](OC(=O)NCCCO)CC3)CC2)nc1C [Compound 6.51, trans-4-((3-(2-Cyclopropyloxazol-4-yl)phenyl)((trans-4-(5-methoxy-6-methylpyridin-2-yl)cyclohexyl)methyl)carbamoyl)cyclohexyl (3-hydroxypropyl)carbamate] | ≤ 250 |
| COc1ccc([C@H]2CC[C@H](CN(c3cc(-c4coc(C5CC5)n4)ccn3)C(=O)[C@H]3CC[C@H](OC(=O)NCCO)CC3)CC2)cc1C [Compound 6.52, trans-4-((4-(2-Cyclopropyloxazol-4-yl)pyridine-2-yl)((trans-4-(4-methoxy-3-methylphenyl)cyclohexyl)methyl)carbamoyl)cyclohexyl (2-hydroxyethyl) carbamate] | ≤ 250 |
| COc1ccc([C@H]2CC[C@H](CN(c3cccc(-c4coc(C5CC5)n4)c3)C(=O)[C@H]3CC[C@H](OC(=O)NCCO)CC3)CC2)cc1C#N [Compound 6.53, trans-4-(((trans-4-(3-Cyano-4-methoxyphenyl)cyclohexyl)methyl)(3-(2-cyclopropyloxazol-4-yl)phenyl)carbamoyl)cyclohexyl (2-hydroxyethyl)carbamate] | ≤ 250 |
| COc1ccc([C@H]2CC[C@H](CN(c3cc(-c4coc(C5CC5)n4)ccn3)C(=O)[C@H]3CC[C@H](OC(=O)NCCO)CC3)CC2)cc1C#N [Compound 6.54, trans-4-(((trans-4-(3-Cyano-4-methoxyphenyl)cyclohexyl)methyl)(4-(2-cyclopropyloxazol-4-yl)pyridine-2-yl)carbamoyl)cyclohexyl (2-hydroxyethyl)carbamate] | ≤ 250 |
| COc1ccc([C@H]2CC[C@H](CN(c3cccc(-c4coc(C5CC5)n4)c3)C(=O)[C@H]3CC[C@H](OC(=O)NCCO)CC3)CC2)nc1C#N [Compound 6.55, trans-4-(((trans-4-(6-Cyano-5-methoxypyridin-2-yl)cyclohexyl)methyl)(3-(2-cyclopropyloxazol-4-yl)phenyl)carbamoyl)cyclohexyl (2-hydroxyethyl)carbamate] | ≤ 250 |
| COCCNC(=O)O[C@H]1CC[C@H](C(=O)N(C[C@H]2CC[C@H](c3ccc(OC)c(C)n3)CC2)c2cc(-c3coc(C4CC4)n3)ccn2)CC1 [Compound 6.56, trans-4-((4-(2-Cyclopropyloxazol-4-yl)pyridine-2-yl)((trans-4-(5-methoxy-6-methylpyridin-2-yl)cyclohexyl)methyl)carbamoyl)cyclohexyl (2-methoxyethyl) carbamate] | ≤ 250 |
| COc1ccc([C@H]2CC[C@H](CN(c3cc(-c4coc(C5CC5)n4)ccn3)C(=O)[C@H]3CC[C@H](OC(=O)NC4CC4)CC3)CC2)nc1C [Compound 6.57, trans-4-((4-(2-Cyclopropyloxazol-4-yl)pyridine-2-yl)((trans-4-(5-methoxy-6-methylpyridin-2-yl)cyclohexyl)methyl)carbamoyl)cyclohexyl cyclopropylcarbamate] | ≤ 250 |
| COc1ccc([C@H]2CC[C@H](CN(c3cc(-c4coc(C5CC5)n4)ccn3)C(=O)[C@H]3CC[C@H](OC(=O)NC(C)C)CC3)CC2)nc1C [Compound 6.58, trans-4-((4-(2-Cyclopropyloxazol-4-yl)pyridine-2-yl)((trans-4-(5-methoxy-6-methylpyridin-2-yl)cyclohexyl)methyl)carbamoyl)cyclohexyl isopropylcarbamate] | ≤ 250 |
| COc1ccc([C@H]2CC[C@H](CN(c3cc(-c4coc(C5CC5)n4)ccn3)C(=O)[C@H]3CC[C@H](OC(=O)N4CCOCC4)CC3)CC2)nc1C [Compound 6.59, trans-4-((4-(2-Cyclopropyloxazol-4-yl)pyridine-2-yl)((trans-4-(5-methoxy-6-methylpyridin-2-yl)cyclohexyl)methyl)carbamoyl)cyclohexyl morpholine-4-carboxylate] | ≤ 250 |
| COc1ccc([C@H]2CC[C@H](CN(c3cc(-c4coc(C5CC5)n4)ccn3)C(=O)[C@H]3CC[C@H](OC(=O)NC4COC4)CC3)CC2)nc1C [Compound 6.60, trans-4-((4-(2-Cyclopropyloxazol-4-yl)pyridine-2-yl)((trans-4-(5-methoxy-6-methylpyridin-2-yl)cyclohexyl)methyl)carbamoyl)cyclohexyl oxetan-3-ylcarbamate] | ≤ 250 |
| COc1ccc([C@H]2CC[C@H](CN(c3cc(-c4coc(C5CC5)n4)ccn3)C(=O)[C@H]3CC[C@H](OC(=O)N4CC(S(C)(=O)=O)C4)CC3)CC2)nc1C [Compound 6.61] | ≤ 250 |
| COc1ccc([C@H]2CC[C@H](CN(c3cc(-c4coc(C5CC5)n4)ccn3)C(=O)[C@H]3CC[C@H](OC(=O)NCCCO)CC3)CC2)nc1C [Compound 6.62] | ≤ 250 |
| COCCN(C)C(=O)O[C@H]1CC[C@H](C(=O)N(C[C@H]2CC[C@H](c3ccc(OC)c(C)n3)CC2)c2cc(-c3coc(C4CC4)n3)ccn2)CC1 [Compound 6.63] | ≤ 250 |
| COc1ccc([C@H]2CC[C@H](CN(c3cc(-c4coc(C5CC5)n4)ccn3)C(=O)[C@H]3CC[C@H](OC(=O)N4CCN(C)CC4)CC3)CC2)cc1C [Compound 6.64, trans-4-((4-(2-Cyclopropyloxazol-4-yl)pyridine-2-yl)((trans-4-(4-methoxy-3-methylphenyl)cyclohexyl)methyl)carbamoyl)cyclohexyl 4-methylpiperazine-1-carboxylate] | ≤ 250 |
| COc1ccc([C@H]2CC[C@H](CN(c3cc(-c4coc(C5CC5)n4)ccn3)C(=O)[C@H]3CC[C@H](OC(=O)N4CCN(C)CC4)CC3)CC2)nc1C [Compound 6.65, trans-4-((4-(2-Cyclopropyloxazol-4-yl)pyridine-2-yl)((trans-4-(5-methoxy-6-methylpyridin-2-yl)cyclohexyl)methyl)carbamoyl)cyclohexyl 4-methylpiperazine-1-carboxylate] | ≤ 250 |
| COc1ccc([C@H]2CC[C@H](CN(c3cc(-c4coc(C5CC5)n4)ccn3)C(=O)[C@H]3CC[C@H](OC(=O)NC[C@H](O)CO)CC3)CC2)nc1C [Compound 6.66, trans-4-((4-(2-Cyclopropyloxazol-4-yl)pyridine-2-yl)((trans-4-(5-methoxy-6-methylpyridin-2-yl)cyclohexyl)methyl)carbamoyl)cyclohexyl ((S)-2,3-dihydroxypropyl)carbamate] | 250 to 1000 |
| COc1ccc([C@H]2CC[C@H](CN(c3cc(-c4coc(C5CC5)n4)ccn3)C(=O)[C@H]3CC[C@H](OC(=O)N(C)CC(C)O)CC3)CC2)nc1C (stereo partly drawn) [Compound 6.67, trans-4-((4-(2-Cyclopropyloxazol-4-yl)pyridin-2-yl)((trans-4-(5-methoxy-6-methylpyridin-2-yl)cyclohexyl)methyl)carbamoyl)cyclohexyl(2-hydroxypropyl)(methyl)carbamate] | ≤ 250 |
| COc1ccc([C@H]2CC[C@H](CN(c3cc(-c4coc(C5CC5)n4)ccn3)C(=O)[C@H]3CC[C@H](OC(=O)NCC(C)(O)C(C)C)CC3)CC2)nc1C (stereo partly drawn) [Compound 6.68, trans-4-((4-(2-Cyclopropyloxazol-4-yl)pyridin-2-yl)((trans-4-(5-methoxy-6-methylpyridin-2-yl)cyclohexyl)methyl)carbamoyl)cyclohexyl (2-hydroxy-2,3-dimethylbutyl)carbamate] | ≤ 250 |
